Laboratory results as given in ChEMBL document CHEMBL5465560, “Selectivity Literature for EUbOPEN Chemogenomic Library” (2024).

What was measured:
[1] = target: T1, Serine/threonine-protein kinase haspin (Homo sapiens) (UniProt Q8TF76); assay: Selectivity interaction (KinomeScan (DiscoverX)) EUB0001049a GSG2; conditions: at 1 µM
T1 sequence (whole entry): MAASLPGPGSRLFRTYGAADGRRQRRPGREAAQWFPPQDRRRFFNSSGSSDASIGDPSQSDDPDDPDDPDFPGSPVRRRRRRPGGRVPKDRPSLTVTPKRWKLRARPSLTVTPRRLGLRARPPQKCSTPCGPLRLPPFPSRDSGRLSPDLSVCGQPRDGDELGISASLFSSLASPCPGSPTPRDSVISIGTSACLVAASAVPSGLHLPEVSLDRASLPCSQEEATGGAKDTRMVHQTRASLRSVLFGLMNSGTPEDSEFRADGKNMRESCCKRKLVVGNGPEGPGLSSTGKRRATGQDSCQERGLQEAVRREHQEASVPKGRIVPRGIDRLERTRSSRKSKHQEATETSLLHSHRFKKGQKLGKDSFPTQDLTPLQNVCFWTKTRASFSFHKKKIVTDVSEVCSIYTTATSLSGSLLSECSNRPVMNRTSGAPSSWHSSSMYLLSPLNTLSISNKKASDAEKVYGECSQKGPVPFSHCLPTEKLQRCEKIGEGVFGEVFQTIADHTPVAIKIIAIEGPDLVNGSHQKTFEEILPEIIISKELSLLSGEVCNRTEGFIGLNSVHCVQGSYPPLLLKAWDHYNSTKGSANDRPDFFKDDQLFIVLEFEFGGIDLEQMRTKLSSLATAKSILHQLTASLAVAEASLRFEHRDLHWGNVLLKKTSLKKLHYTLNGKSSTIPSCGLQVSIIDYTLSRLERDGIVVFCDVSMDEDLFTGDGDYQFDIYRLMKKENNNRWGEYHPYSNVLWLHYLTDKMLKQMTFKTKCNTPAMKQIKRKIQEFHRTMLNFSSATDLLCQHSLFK

[2] = target: T2, Homeodomain-interacting protein kinase 4 (Homo sapiens) (UniProt Q8NE63); assay: Selectivity interaction (KinomeScan (DiscoverX)) EUB0000666a HIPK4; conditions: at 10 µM
T2 sequence (whole entry): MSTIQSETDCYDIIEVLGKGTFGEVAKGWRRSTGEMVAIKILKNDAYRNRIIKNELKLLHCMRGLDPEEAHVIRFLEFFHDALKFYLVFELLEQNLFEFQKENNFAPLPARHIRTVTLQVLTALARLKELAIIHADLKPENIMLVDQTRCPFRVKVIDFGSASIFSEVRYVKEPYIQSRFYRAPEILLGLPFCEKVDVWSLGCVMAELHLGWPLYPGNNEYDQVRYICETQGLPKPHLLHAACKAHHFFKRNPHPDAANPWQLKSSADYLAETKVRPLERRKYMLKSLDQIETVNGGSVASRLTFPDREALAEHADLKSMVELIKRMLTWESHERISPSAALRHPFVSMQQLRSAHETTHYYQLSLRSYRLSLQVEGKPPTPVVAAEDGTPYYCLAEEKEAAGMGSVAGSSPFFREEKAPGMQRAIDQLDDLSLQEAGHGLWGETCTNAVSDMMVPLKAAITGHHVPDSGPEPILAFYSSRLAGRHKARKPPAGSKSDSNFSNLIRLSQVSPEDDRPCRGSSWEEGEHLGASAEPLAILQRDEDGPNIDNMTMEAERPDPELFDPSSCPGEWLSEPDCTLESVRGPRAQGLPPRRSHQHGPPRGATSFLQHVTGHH

[3] = target: Cyclin-dependent kinase 14 (Homo sapiens) (UniProt O94921); assay: Selectivity interaction (KinomeScan (DiscoverX)) EUB0001079a CDK14; conditions: at 1 µM
Cyclin-dependent kinase 14 (Homo sapiens), sequence (O94921 whole entry): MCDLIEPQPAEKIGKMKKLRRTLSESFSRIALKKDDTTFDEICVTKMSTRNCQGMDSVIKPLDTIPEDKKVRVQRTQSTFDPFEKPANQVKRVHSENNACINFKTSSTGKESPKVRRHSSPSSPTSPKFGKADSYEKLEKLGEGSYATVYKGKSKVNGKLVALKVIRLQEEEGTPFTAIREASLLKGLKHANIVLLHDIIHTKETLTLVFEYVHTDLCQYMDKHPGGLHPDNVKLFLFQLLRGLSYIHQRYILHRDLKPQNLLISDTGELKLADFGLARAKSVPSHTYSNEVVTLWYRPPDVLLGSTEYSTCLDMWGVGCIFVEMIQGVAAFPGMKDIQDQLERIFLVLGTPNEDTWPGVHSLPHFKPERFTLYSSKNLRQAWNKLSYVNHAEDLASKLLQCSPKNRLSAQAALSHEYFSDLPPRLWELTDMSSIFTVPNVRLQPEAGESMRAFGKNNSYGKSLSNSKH

[4] = target: Cyclin-dependent kinase 17 (Homo sapiens) (UniProt Q00537); assay: Selectivity interaction (ActivX KiNativ screen (kinase selectivity in THP-1 cell lysates)) EUB0000639a CDK17; assay type: subcellular; conditions: lysate, at 1 µM
Cyclin-dependent kinase 17 (Homo sapiens), sequence (Q00537 whole entry, looked up): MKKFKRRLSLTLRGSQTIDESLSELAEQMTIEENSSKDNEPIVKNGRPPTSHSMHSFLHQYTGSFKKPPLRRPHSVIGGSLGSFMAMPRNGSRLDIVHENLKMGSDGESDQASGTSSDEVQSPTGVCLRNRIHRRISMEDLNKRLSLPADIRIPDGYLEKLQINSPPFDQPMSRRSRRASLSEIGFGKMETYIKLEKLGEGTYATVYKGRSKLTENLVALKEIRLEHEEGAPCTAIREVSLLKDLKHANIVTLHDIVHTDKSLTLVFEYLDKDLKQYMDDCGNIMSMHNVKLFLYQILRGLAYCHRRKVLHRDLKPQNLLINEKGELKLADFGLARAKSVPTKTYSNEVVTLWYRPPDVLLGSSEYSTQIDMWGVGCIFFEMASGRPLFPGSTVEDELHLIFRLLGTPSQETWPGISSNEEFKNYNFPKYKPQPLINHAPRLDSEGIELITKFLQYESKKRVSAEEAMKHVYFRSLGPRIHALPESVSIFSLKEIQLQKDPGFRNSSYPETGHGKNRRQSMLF

Activated CDC42 kinase 1 = Activated CDC42 kinase 1 (Homo sapiens, UniProt Q07912); assay: Selectivity interaction (ActivX KiNativ screen (kinase selectivity in THP-1 cell lysates)) EUB0000639a TNK2; assay type: subcellular; conditions: lysate
Activated CDC42 kinase 1, sequence (Q07912 whole entry, looked up): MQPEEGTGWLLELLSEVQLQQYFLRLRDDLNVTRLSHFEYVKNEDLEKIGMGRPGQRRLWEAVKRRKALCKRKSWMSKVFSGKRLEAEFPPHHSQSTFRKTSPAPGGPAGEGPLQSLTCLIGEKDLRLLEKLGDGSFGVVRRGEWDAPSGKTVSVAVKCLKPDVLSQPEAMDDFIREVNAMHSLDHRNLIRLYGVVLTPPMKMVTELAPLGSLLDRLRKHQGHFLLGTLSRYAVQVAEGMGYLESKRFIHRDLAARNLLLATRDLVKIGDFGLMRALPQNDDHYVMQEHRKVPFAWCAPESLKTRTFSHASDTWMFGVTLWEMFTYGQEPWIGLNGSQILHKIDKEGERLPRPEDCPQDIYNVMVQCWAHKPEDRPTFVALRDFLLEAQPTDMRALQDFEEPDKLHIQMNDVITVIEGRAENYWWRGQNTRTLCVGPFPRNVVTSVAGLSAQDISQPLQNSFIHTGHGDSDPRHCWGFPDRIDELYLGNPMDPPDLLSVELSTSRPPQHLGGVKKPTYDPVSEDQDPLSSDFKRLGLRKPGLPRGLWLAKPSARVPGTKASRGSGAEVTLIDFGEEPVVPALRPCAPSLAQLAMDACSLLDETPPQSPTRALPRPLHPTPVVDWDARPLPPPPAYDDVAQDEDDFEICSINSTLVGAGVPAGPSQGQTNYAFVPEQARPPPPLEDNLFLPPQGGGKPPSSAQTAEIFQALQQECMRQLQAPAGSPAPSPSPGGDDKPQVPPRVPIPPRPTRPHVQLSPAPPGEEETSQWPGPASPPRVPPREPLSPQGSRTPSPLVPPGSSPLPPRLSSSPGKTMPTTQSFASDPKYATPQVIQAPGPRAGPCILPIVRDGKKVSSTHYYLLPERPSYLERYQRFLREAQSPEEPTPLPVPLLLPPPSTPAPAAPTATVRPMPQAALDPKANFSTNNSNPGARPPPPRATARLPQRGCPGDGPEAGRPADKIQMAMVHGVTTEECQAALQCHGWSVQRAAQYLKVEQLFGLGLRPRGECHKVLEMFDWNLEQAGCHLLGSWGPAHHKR

[5] = target: Activin receptor type-1-like (Homo sapiens) (UniProt P37023); assay: Selectivity interaction (KinomeScan (DiscoverX)) EUB0000595a ACVRL1; conditions: at 10 µM
Activin receptor type-1-like (Homo sapiens), sequence (P37023 whole entry): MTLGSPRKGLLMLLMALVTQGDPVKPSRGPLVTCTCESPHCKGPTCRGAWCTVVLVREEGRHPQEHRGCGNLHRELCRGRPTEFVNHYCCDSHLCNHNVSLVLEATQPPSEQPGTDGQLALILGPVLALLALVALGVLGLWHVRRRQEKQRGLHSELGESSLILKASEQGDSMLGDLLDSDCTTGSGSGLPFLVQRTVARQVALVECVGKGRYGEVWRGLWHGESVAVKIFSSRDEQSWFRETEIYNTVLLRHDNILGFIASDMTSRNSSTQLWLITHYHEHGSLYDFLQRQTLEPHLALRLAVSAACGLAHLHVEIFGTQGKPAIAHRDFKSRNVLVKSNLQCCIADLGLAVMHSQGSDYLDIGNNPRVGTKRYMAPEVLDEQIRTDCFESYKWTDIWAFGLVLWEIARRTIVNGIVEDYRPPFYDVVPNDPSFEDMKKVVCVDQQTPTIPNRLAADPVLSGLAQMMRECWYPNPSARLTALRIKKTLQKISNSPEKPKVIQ

[6] = target: Serine/threonine-protein kinase 32B (Homo sapiens) (UniProt Q9NY57); assay: Selectivity interaction (KinomeScan (DiscoverX)) EUB0000595a STK32B; conditions: at 10 µM
Serine/threonine-protein kinase 32B (Homo sapiens), sequence (Q9NY57 whole entry): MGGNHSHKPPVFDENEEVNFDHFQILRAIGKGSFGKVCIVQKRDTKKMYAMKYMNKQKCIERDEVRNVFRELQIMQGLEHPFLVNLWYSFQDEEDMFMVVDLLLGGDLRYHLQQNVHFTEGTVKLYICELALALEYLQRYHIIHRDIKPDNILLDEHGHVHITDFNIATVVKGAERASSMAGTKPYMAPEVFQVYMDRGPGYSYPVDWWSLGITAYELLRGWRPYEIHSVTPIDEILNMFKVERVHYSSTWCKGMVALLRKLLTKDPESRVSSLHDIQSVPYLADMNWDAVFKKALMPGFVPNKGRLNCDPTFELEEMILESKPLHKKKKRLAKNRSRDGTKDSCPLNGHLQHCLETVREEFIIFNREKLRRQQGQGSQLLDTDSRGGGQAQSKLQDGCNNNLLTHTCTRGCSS

[7] = target: NT-3 growth factor receptor (Homo sapiens, UniProt Q16288); assay: Selectivity interaction (KinomeScan (DiscoverX)) EUB0000092b NTRK3; conditions: at 10 µM
[8] = target: T3, Uncharacterized serine/threonine-protein kinase SBK3 (Homo sapiens) (UniProt P0C264); assay: Selectivity interaction (KinomeScan (DiscoverX)) EUB0001619a SBK3; conditions: at 1 µM
T3 sequence (whole entry): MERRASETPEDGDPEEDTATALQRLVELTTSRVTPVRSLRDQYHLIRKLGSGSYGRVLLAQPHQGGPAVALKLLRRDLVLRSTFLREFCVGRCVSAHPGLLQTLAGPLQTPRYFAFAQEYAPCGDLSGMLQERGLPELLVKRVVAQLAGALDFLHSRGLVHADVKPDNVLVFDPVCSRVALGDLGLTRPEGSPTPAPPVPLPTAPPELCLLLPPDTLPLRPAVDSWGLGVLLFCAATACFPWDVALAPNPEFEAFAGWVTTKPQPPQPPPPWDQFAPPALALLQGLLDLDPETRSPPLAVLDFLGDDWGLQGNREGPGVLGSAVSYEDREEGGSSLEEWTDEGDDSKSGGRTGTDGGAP

[9] = target: 1-phosphatidylinositol 3-phosphate 5-kinase (Homo sapiens) (UniProt Q9Y2I7); assay: Selectivity interaction (KinomeScan (DiscoverX)) EUB0000695a PIKFYVE; conditions: at 100 nM
Misshapen-like kinase 1 [10] = target: T4, Misshapen-like kinase 1 (Homo sapiens, UniProt Q8N4C8); assay: Selectivity interaction (SelectScreen profiling (Invitrogen)) EUB0000607a MINK1; conditions: at 2 µM
T4 sequence (Q8N4C8 whole entry, looked up): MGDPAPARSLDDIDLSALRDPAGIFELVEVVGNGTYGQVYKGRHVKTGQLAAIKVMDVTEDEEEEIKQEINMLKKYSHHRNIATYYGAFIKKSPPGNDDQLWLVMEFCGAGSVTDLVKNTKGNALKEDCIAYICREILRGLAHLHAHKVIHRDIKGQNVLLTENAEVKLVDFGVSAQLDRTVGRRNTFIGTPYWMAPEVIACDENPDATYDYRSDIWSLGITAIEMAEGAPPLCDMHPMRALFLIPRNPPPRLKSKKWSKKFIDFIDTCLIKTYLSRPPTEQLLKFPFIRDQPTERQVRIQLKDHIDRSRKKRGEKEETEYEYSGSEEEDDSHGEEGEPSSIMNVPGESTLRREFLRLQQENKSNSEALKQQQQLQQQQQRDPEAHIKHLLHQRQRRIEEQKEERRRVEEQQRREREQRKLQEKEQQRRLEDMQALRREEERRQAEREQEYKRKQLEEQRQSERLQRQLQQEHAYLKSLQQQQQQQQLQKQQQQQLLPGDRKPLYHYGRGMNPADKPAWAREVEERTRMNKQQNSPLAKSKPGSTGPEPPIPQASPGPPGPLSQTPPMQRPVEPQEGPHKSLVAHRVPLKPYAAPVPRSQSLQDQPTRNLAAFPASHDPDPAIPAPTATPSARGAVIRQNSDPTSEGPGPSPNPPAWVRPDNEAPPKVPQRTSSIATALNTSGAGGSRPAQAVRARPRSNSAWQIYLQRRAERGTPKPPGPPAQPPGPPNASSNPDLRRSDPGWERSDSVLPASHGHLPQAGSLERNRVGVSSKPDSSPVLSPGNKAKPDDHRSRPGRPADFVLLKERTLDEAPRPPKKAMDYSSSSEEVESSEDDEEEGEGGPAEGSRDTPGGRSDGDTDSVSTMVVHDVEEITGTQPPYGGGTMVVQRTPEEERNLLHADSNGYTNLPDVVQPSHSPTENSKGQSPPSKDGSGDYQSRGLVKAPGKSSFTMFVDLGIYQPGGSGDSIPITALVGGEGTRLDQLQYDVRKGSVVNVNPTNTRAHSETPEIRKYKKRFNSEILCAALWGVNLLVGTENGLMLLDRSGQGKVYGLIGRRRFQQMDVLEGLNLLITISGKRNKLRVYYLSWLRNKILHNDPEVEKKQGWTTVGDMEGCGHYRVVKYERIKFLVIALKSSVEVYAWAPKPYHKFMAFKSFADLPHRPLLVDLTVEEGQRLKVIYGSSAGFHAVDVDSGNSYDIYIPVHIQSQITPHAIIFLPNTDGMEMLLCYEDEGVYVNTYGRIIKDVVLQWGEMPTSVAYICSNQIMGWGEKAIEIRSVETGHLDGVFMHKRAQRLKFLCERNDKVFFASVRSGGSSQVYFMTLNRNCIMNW

Misshapen-like kinase 1 [11] = target: T4, Misshapen-like kinase 1; assay: Selectivity interaction (ProQinase) EUB0000171b MINK1

COc1cc(Nc2nc(C)cc(-c3cnn4nc(OC)ccc34)n2)cc(C(F)(F)F)c1
% of control [1]: 100%

O=C(NOC[C@H](O)CO)c1ccc(F)c(F)c1Nc1ccc(I)cc1F
% of control [2]: 100%

Nc1cnc(N2CCc3cc(S(=O)(=O)Nc4c(F)cc(Cl)cc4F)cc(N4CCCC4=O)c32)nc1 [TP-020n]
% of control [3]: 100%

CC[C@@H]1[C@H](F)C(=O)N[C@@H]1COc1nccc2cc(C(N)=O)c(OC)cc12 [ZIMLOVISERTIB]
% of inhibition [4]: 3.9% | % of inhibition (Activated CDC42 kinase 1; at 0.01 µM): 1.7% | % of inhibition (Activated CDC42 kinase 1; at 0.04 µM): -15.5% | % of inhibition (Activated CDC42 kinase 1; at 0.2 µM): -11.3% | % of inhibition (Activated CDC42 kinase 1; at 1 µM): -19.1% | % of inhibition (Activated CDC42 kinase 1; at 5 µM): -20.6%

COCC(=O)NC/C=C/c1ccc2ncnc(Nc3ccc(Oc4ccc(C)nc4)c(C)c3)c2c1 [CP-724714]
% of control [5]: 84% | % of control [6]: 92%

CCC(=O)N1CCN(c2ccc(-n3c(=O)ccc4cnc5ccc(-c6cnc7ccccc7c6)cc5c43)cc2C(F)(F)F)CC1
% of control [7]: 100%

N#Cc1cccc(-c2c[nH]c3ncnc(N4CCOCC4)c23)c1
% of control [8]: 100%

Cc1cc(F)c(C(=O)Nc2cccc(-c3nncn3C(C)C)n2)cc1-n1cnc(C2CC2)c1
% of control [9]: 98%

CNC(=O)Nc1ccc(-c2nc(N3CC4CCC(C3)O4)c3cnn(C4CCC5(CC4)OCCO5)c3n2)cc1
% of inhibition (Misshapen-like kinase 1 [10]): 14%

C=CC(=O)Nc1cccc(C(=O)Nc2ccc(Nc3cc(-c4[nH]c(SC)nc4C)ccn3)cc2)c1
% of control (Misshapen-like kinase 1 [11]; at 1 µM): 75% | % of control (Misshapen-like kinase 1 [11]; at 5 µM): 44%
